Patent US7211576B2, “Diaminothiazoles” (Hoffmann-La Roche Inc., priority 2004, dated 2007)
Where two headings read alike, the source gives them in different places.

Assays:
human cyclin D1-CDK4 = human cyclin D1-CDK4 (Homo sapiens, UniProt P11802); assay: FlashPlate kinase assay, cyclin D1-CDK4; type: biochemical
Method: To determine inhibition of Cdk4, Cdk2 and Cdk1 activity, kinase assays were conducted using FlashPlate™ assays (NEN™-Life Science Products). FlashPlate assays were performed using recombinant human cyclin B-CDK1, human cyclin E-CDK2 or human cyclin D1-CDK4 complexes. GST-cyclinE (GST-cycE), CDK2, GST-cyclinB (GST-cycB), CDK1, GST-CDK4 and cyclin D1 (cycD1) cDNA clones in baculovirus vectors were provided by Dr. W. Harper at the Baylor College of Medicine, Houston, Tex.
(§1) The expression of the 62Kd protein was under the control of an IPTG inducible promoter in an M15 E. coli strain. Cells were lysed by sonication and purification was carried out by binding lysates at pH 8.0 to a Ni-chelated agarose column pretreated with 1 mM imidazole. The resin was then washed several times with incrementally decreasing pH buffers to pH 6.0, and eluted with 500 mM imidazole. Eluted protein was dialysed against 20 mM HEPES pH 7.5, 30% glycerol, 200 mM NaCl, and 1 mM DTT. Purified Rb fusion protein stocks were quantitated for protein concentration, aliquoted, and stored at −70° C.
(§2) For all three kinase assays reported herein, 96-well FlashPlates were coated with Rb protein at 10 μg/ml, using 100 μl per well. Plates were incubated at 4° C. overnight or at room temperature for 3 hours on a shaker. To control for nonspecific phosphorylation, one row of wells was coated with 100 μl/well coating buffer (20 mM HEPES, 0.2 M NaCl). Plates were then washed twice with wash buffer (0.01% Tween 20 in phosphate-buffered saline). Compounds to be tested (“test compounds”) were added to the wells at 5× final concentration. Reactions were initiated by immediate addition of 40 μl reaction mix (25 mM HEPES, 20 mM MgCl2, 0.002% Tween 20, 2 mM DTT, 1 μM ATP, 4 nM ^33P-ATP) and a sufficient amount of enzyme to give counts that were at least 10-fold above background. Plates were incubated at room temperature on a shaker for 30 minutes. Plates were washed four times with the wash buffer, sealed, and counted on the TopCount scintillation counter (Packard Instrument Co., Downers Grove, Ill.]. The percent inhibition of Rb phosphorylation, which is a measure of the inhibition of CDK activity, was determined according to the following formula:
[formula] where “test compound” refers to the average counts per minute of the test duplicates, “nonspecific” refers to the average counts per minute when no CyclinD/Cdk4, etc., was added, and “total” refers to the average counts per minute when no compound was added.

human cyclin B-CDK1 = human cyclin B-CDK1 (Homo sapiens, UniProt P06493); assay: FlashPlate kinase assay, cyclin B-CDK1; type: biochemical; settings: Rb protein substrate, 1 μM ATP, 33P-ATP, 30 minutes room temperature
Chain of human cyclin B-CDK1 (P06493 whole entry): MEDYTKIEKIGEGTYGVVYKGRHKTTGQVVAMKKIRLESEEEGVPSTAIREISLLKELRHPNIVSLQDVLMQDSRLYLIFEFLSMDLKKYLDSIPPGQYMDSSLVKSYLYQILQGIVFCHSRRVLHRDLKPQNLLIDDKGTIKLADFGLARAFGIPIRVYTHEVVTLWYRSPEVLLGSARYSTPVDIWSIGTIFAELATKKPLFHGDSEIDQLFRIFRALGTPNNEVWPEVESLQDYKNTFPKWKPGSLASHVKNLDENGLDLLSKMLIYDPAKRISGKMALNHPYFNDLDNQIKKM
Chain of human cyclin B-CDK1 (P14635 whole entry partner): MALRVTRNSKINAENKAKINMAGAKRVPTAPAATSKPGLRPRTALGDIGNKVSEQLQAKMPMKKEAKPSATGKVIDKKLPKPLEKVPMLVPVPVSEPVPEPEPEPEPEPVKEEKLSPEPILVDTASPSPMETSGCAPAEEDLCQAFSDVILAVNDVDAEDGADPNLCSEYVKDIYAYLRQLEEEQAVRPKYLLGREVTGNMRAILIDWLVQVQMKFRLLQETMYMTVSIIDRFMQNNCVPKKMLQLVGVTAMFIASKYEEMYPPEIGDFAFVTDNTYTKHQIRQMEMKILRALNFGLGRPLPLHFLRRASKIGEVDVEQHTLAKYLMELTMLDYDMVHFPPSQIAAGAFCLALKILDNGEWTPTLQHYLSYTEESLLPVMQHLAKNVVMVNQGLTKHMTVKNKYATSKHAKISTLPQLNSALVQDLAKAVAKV
Method: To determine inhibition of Cdk4, Cdk2 and Cdk1 activity, kinase assays were conducted using FlashPlate™ assays (NEN™-Life Science Products). FlashPlate assays were performed using recombinant human cyclin B-CDK1, human cyclin E-CDK2 or human cyclin D1-CDK4 complexes. GST-cyclinE (GST-cycE), CDK2, GST-cyclinB (GST-cycB), CDK1, GST-CDK4 and cyclin D1 (cycD1) cDNA clones in baculovirus vectors were provided by Dr. W. Harper at the Baylor College of Medicine, Houston, Tex. Proteins were co-expressed in High Five™ insect cells and the complex was purified on glutathione Sepharose resin (Pharmacia, Piscataway, N.J.) as previously described (Harper, J. W. et al. Cell 1993, 75, 805–816). A 6×-Histidine tagged truncated form of retinoblastoma (Rb) protein (amino acid 386–928) was used as the substrate for the cycD1-CDK4, cycB-CDK1 and the cycE-CDK2 assays (the expression plasmid was provided by Dr. Veronica Sullivan, Department of Molecular Virology, Roche Research Centre, Welwyn Garden City, United Kingdom). The Rb protein is a natural substrate for phosphorylation by CDK4, CDK2 and CDK1 (see Herwig and Strauss Eur. J. Biochem. Vol. 246 (1997) pp. 581–601 and the references cited therein).
as §1, §2
[formula] where “test compound” refers to the average counts per minute of the test duplicates, “nonspecific” refers to the average counts per minute when no CyclinD/Cdk4, etc., was added, and “total” refers to the average counts per minute when no compound was added. The IC50 value is the concentration of test compound that reduces by 50% the protein-kinase induced incorporation of the radiolabel under the test conditions described.

[1] = Rb protein substrate, 1 μM ATP, 33P-ATP, 30 minutes room temperature, read-out: CDK4 IC50

Chain of human cyclin D1-CDK4 (P11802 whole entry): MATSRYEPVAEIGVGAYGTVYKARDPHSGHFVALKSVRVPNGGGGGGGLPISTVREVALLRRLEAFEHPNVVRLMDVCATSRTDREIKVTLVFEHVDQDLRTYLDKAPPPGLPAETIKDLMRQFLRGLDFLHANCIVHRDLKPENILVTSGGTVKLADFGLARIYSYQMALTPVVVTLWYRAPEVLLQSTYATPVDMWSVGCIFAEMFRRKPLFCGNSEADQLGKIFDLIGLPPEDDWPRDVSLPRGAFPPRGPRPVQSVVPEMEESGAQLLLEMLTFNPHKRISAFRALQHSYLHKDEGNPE
Chain of human cyclin D1-CDK4 (P24385 whole entry partner): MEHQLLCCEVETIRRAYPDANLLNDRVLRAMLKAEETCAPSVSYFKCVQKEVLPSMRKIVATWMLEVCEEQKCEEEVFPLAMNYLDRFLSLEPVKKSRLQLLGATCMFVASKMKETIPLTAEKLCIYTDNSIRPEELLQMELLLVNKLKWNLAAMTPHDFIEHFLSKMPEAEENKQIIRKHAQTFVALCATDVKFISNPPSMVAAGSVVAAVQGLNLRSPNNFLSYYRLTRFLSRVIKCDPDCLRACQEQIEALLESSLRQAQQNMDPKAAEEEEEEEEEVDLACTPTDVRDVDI

IC50 (human cyclin D1-CDK4; [1]) [nM] | IC50 (human cyclin B-CDK1) [nM] | SMILES | IC50 (human cyclin D1-CDK4) [nM]
677 | – | CN(C)C1CCN(c2ccc(Nc3nc(N)c(C(=O)c4ccc(O)c(C(N)=O)c4)s3)cc2)CC1 [Example 93, 5-{4-Amino-2-[4-(4-dimethylamino-piperidin-1-yl)-phenylamino]-thiazole-5-carbonyl}-2-hydroxy-benzamide] | –
400 | – | Nc1nc(Nc2ccc(N3CCC(N4CCCC(O)C4)CC3)cc2)sc1C(=O)c1ccc(C(=O)O)cc1 (stereo not shown) [Example 79, 4-{4-Amino-2-[4-(3-hydroxy-[1,4′]bipiperidinyl-1′-yl)-phenylamino]-thiazole-5-carbonyl}-benzoic acid] | –
212 | – | N#Cc1ccc(C(=O)c2sc(Nc3ccc(N4CCC(N5CCCC5)CC4)cc3)nc2N)cc1 [Example 54, 4-{4-Amino-2-[4-(4-pyrrolidin-1-yl-piperidin-1-yl)-phenylamino]-thiazole-5-carbonyl}-benzonitrile] | –
96 | – | Nc1nc(Nc2ccc(N3CCC(N4CCCC4)CC3)cc2)sc1C(=O)c1ccc([N+](=O)[O-])cc1 [Example 53, {4-Amino-2-[4-(4-pyrrolidin-1-yl-piperidin-1-yl)-phenylamino]-thiazol-5-yl}-(4-nitro-phenyl)-methanone] | –
390 | – | NC(=O)c1cc(C(=O)c2sc(Nc3ccc(N4CCC(N5CCCC5)CC4)cc3)nc2N)ccc1O [Example 94, 5-{4-Amino-2-[4-(4-pyrrolidin-1-yl-piperidin-1-yl)-phenylamino]-thiazole-5-carbonyl}-2-hydroxy-benzamide] | –
132 | – | CN(C)C1CCN(c2ccc(Nc3nc(N)c(C(=O)c4ccc(Cl)cc4)s3)cc2)CC1 [Example 83, {4-Amino-2-[4-(4-dimethylamino-piperidin-1-yl)-phenylamino]-thiazol-5-yl}-(4-chloro-phenyl)-methanone] | –
230 | – | N#Cc1ccc(C(=O)c2sc(Nc3ccc(N4CCC(N5CCCC(O)C5)CC4)cc3)nc2N)cc1 (stereo not shown) [Example 51, 4-{4-Amino-2-[4-(3-hydroxy-[1,4′]bipiperidinyl-1′-yl)-phenylamino]-thiazole-5-carbonyl}-benzonitrile] | –
71 | – | Nc1nc(Nc2ccc(N3CCC(N4CCCCC4)CC3)cc2)sc1C(=O)c1ccc(F)cc1 [Example 61, [4-Amino-2-(4-[1,4′]bipiperidinyl-1′-yl-phenylamino)-thiazol-5-yl]-(4-fluoro-phenyl)-methanone] | –
111 | – | Nc1nc(Nc2ccc(N3CCC(N4CCCC(O)C4)CC3)cc2)sc1C(=O)c1ccc(F)cc1 (stereo not shown) [Example 77, {4-Amino-2-[4-(3-hydroxy-[1,4′]bipiperidinyl-1′-yl)-phenylamino]-thiazol-5-yl}-(4-fluoro-phenyl)-methanone] | –
76 | 4020 | Nc1nc(Nc2ccc(N3CCC(N4CCCC4)CC3)cc2)sc1C(=O)c1cc(F)cc(F)c1 [Example 66, {4-Amino-2-[4-(4-pyrrolidin-1-yl-piperidin-1-yl)-phenylamino]-thiazol-5-yl}-(3,5-difluoro-phenyl)-methanone] | –
90 | 5770 | Nc1nc(Nc2ccc(N3CCC(N4CCCCC4)CC3)cc2)sc1C(=O)c1ccc(Cl)c(Cl)c1 [Example 60, [4-Amino-2-(4-[1,4′]bipiperidinyl-1′-yl-phenylamino)-thiazol-5-yl]-(3,4-dichloro-phenyl)-methanone] | –
74 | – | CN(C)C1CCN(c2ccc(Nc3nc(N)c(C(=O)c4ccc([N+](=O)[O-])cc4)s3)cc2)CC1 [Example 48, {4-Amino-2-[4-(4-dimethylamino-piperidin-1-yl)-phenylamino]-thiazol-5-yl}-(4-nitro-phenyl)-methanone] | –
114 | – | CN(C)C1CCN(c2ccc(Nc3nc(N)c(C(=O)c4ccc(F)cc4)s3)cc2)CC1 [Example 86, {4-Amino-2-[4-(4-dimethylamino-piperidin-1-yl)-phenylamino]-thiazol-5-yl}-(4-fluoro-phenyl)-methanone] | –
25 | 580 | Nc1nc(Nc2ccc(N3CCC(N4CCOCC4)CC3)cc2)sc1C(=O)c1ccc2c(c1)OCO2 [Example 101, {4-Amino-2-[4-(4-morpholin-4-yl-piperidin-1-yl)-phenylamino]-thiazol-5-yl}-benzo[1,3]dioxol-5-yl-methanone] | –
186 | – | CN(C)C1CCN(c2ccc(Nc3nc(N)c(C(=O)c4ccc(C#N)cc4)s3)cc2)CC1 [Example 47, 4-{4-Amino-2-[4-(4-dimethylamino-piperidin-1-yl)-phenylamino]-thiazole-5-carbonyl}-benzonitrile] | –
170 | – | Nc1nc(Nc2ccc(N3CCC(N4CCCC4)CC3)cc2)sc1C(=O)c1ccc(Cl)cc1 [Example 67, {4-Amino-2-[4-(4-pyrrolidin-1-yl-piperidin-1-yl)-phenylamino]-thiazol-5-yl}-(4-chloro-phenyl)-methanone] | –
320 | – | Nc1nc(Nc2ccc(N3CCC(N4CCCCC4)CC3)cc2)sc1C(=O)c1ccc(C(=O)O)cc1 [Example 63] | –
62 | – | Nc1nc(Nc2ccc(N3CCC(N4CCCC(O)C4)CC3)cc2)sc1C(=O)c1ccc(Cl)cc1 (stereo not shown) [Example 74, {4-Amino-2-[4-(3-hydroxy-[1,4′]bipiperidinyl-1′-yl)-phenylamino]-thiazol-5-yl}-(4-chloro-phenyl)-methanone] | –
14 | 770 | Cc1cccc(C(=O)c2sc(Nc3ccc(N4CCC(N5CCCC5)CC4)cc3)nc2N)c1 [Example 109, {4-Amino-2-[4-(4-pyrrolidin-1-yl-piperidin-1-yl)-phenylamino]-thiazol-5-yl}-tolyl-methanone] | –
186 | – | Nc1nc(Nc2ccc(N3CCC(N4CCCC4)CC3)cc2)sc1C(=O)c1ccc(F)cc1 [Example 70, {4-Amino-2-[4-(4-pyrrolidin-1-yl-piperidin-1-yl)-phenylamino]-thiazol-5-yl}-(4-fluoro-phenyl)-methanone] | –
45 | – | Nc1nc(Nc2ccc(N3CCC(N4CCCCC4)CC3)cc2)sc1C(=O)c1ccc(Cl)cc1 [Example 58, [4-Amino-2-(4-[1,4′]bipiperidinyl-1′-yl-phenylamino)-thiazol-5-yl]-(4-chloro-phenyl)-methanone] | –
39 | 2700 | Nc1nc(Nc2ccc(N3CCC(N4CCOCC4)CC3)cc2)sc1C(=O)c1ccc2c(c1)OCCO2 [Example 98, {4-Amino-2-[4-(4-morpholin-4-yl-piperidin-1-yl)-phenylamino]-thiazol-5-yl}-(2,3-dihydro-benzo[1,4]dioxin-6-yl)-methanone] | –
71 | – | Nc1nc(Nc2ccc(N3CCC(N4CCCC(O)C4)CC3)cc2)sc1C(=O)c1ccc([N+](=O)[O-])cc1 (stereo not shown) [Example 52, {4-Amino-2-[4-(3-hydroxy-[1,4′]bipiperidinyl-1′-yl)-phenylamino]-thiazol-5-yl}-(4-nitro-phenyl)-methanone] | –
370 | – | N#Cc1ccc(C(=O)c2sc(Nc3ccc(N4CCC(N5CCCCC5)CC4)cc3)nc2N)cc1 [Example 55, 4-[4-Amino-2-(4-[1,4′]bipiperidinyl-1′-yl-phenylamino)-thiazole-5-carbonyl]-benzonitrile] | –

SMILES | IC50 (human cyclin D1-CDK4; [1]) [nM] | IC50 (human cyclin B-CDK1) [nM] | IC50 (human cyclin D1-CDK4) [nM]
COc1ccc(C(=O)c2sc(Nc3ccc(N4CCC(N5CCOCC5)CC4)cc3)nc2N)cc1F [Example 100, {4-Amino-2-[4-(4-morpholin-4-yl-piperidin-1-yl)-phenylamino]-thiazol-5-yl}-(3-fluoro-4-methoxy-phenyl)-methanone] | – | 4170 | 90
